Results: patent US10774385B2, “Method of determining risk of 5-fluorouracil toxicity” (Oxford University Innovation Limited, priority 2014, dated 2020)

Tests used:
[1] = cited from earlier work
[2] = Spanish Capecitabine Pharmacogenetic (SCP) Study: diarrhea and HFS by CTCAE v3.0; type: in vivo, human; conditions: capecitabine monotherapy
Procedure: Two additional data sets were used for validation of toxicity associations. The Spanish Capecitabine Pharmacogenetic (SCP) Study consisted of 233 colorectal and breast cancer patients prospectively recruited through several oncology units in Spain and treated with one of two capecitabine monotherapy regimens (standard: 1250 mg/m^2 twice daily d1-14 every 3 weeks; continuous: 800 mg/m^2 orally every 12 hours daily). HFS and diarrhea data Table 4 were collected according to CTCAEv3.0.

[3] = QUASAR2 trial: FU-related adverse events of capecitabine +/- bevacizumab graded by NCI CTCAE v3.0; type: in vivo, human
Procedure: The QUASAR2 study (http://www.octo-oxford.org.uk/alltrials/infollowup/q2.html; http://www.controlled-trials.com/ISRCTN45133151/) is a phase III randomised controlled trial of adjuvant capecitabine (Xeloda) (1250 mg/m2 twice daily d1-14 every 3 weeks, total of 8 cycles) +/−bevacizumab (7.5 mg/kg every three weeks) following resection of stage II/III CRC. Patients were entered into the study between July 2005 and December 2011 at 123 UK and 81 non-UK sites. Of 1119 patients with blood collected as of July 2010, 1046 were selected for study based on availability of clinical data and informed consent.
Adverse events were graded following each treatment cycle using the NCI Common Toxicity Criteria for Adverse Events (CTCAE) version 3.0. Common FU-related toxicities—diarrhea, nausea and vomiting, mucositis/stomatitis, neutropaenia, thrombocytopaenia, and HFS—were analysed individually and also in combination as “global” toxicity. Adverse events were categorised as low (CTCAE grade 0/1/2) and high (CTCAE grade 3/4/5 at any treatment cycle). Hypertension and proteinuria were clearly related to bevacizumab (˜10-fold higher incidence) and were not included in the analysis.
The QUASAR2 study was used as described in Example 1(a)(i). Of 1,119 patients with blood collected as of July 2010, 1,046 were selected for genetic study based on completeness of clinical data and informed consent.
Toxicity phenotype data were collected as part of QUASAR2 according the NCI Common Toxicity Criteria for Adverse Events (CTCAE) version 3.0. Maximum toxicity (0-4) at any treatment cycle was derived for each of the following individual FU-related toxicities: diarrhea, nausea and vomiting, mucositis/stomatitis, neutropaenia, thrombocytopaenia and HFS. A global measure of toxicity was derived, defined as the maximum individual toxicity score measured for each patient. Global and individual toxicities were analysed using two approaches: (i) a binary classification into low toxicity (grade 0-2) versus high (dose-limiting) toxicity (grade 3-4); and (ii) a quantitative measure of toxicity. In the latter, if <100 patients experienced a particular grade of toxicity, these patients were combined into a single bin with an adjacent grade. Specifically, grades 01v2v34 for global, diarrhea and HFS and 0v1234 for the other, rarer toxicity phenotypes were analysed.

[4] = patients selected for high and low toxicity
[5] = human, in vivo, 8 cycles of 3 weeks

O=c1[nH]cc(F)c(=O)[nH]1 [FU, 5-fluorouracil]
Patients suffering substantial toxicities (Grade 3 or above, CTCAE v3.0) ([1]; FU chemotherapy, background statement): 10-30% | Mortality (Grade 5, CTCAE v3.0) associated with FU use ([1]; overall, literature): 0.5-1.0%

CCCCCOC(=O)Nc1nc(=O)n(C2OC(C)C(O)C2O)cc1F (stereo not drawn) [capecitabine, pentyl [1-(3,4-dihydroxy-5-methyltetrahydrofuran-2-yl)-5-fluoro-2-oxo-1H-pyrimidin-4-yl]carbamate]
Patients, Diarrhoea, highest CTCAE grade reported during treatment: 0 ([2]; 233 colorectal and breast cancer patients, selected for high and low toxicity): 143 | Patients, Diarrhoea, highest CTCAE grade reported during treatment: 1 [2, 4]: 23 | Patients, Diarrhoea, highest CTCAE grade reported during treatment: 2 [2, 4]: 17 | Patients, Diarrhoea, highest CTCAE grade reported during treatment: 3 [2, 4]: 32 | Patients, Diarrhoea, highest CTCAE grade reported during treatment: 4 [2, 4]: 4 | Patients, Handfoot, highest CTCAE grade reported during treatment: 0 [2, 4]: 85 | Patients, Handfoot, highest CTCAE grade reported during treatment: 1 [2, 4]: 28 | Patients, Handfoot, highest CTCAE grade reported during treatment: 2 [2, 4]: 30 | Patients, Handfoot, highest CTCAE grade reported during treatment: 3 [2, 4]: 86 | Patients, Handfoot, highest CTCAE grade reported during treatment: 4 [2, 4]: 2 | Toxicity-induced deaths in QUASAR2 ([3]; QUASAR2, patients with grade 4 myelotoxicity): two | Patients, Global adverse event, CTCAE grade 0 [3, 5]: 75 | Patients, Global adverse event, CTCAE grade 1 [3, 5]: 241 | Patients, Global adverse event, CTCAE grade 2 [3, 5]: 375 | Patients, Global adverse event, CTCAE grade 3 [3, 5]: 334 | Patients, Neutropaenia, CTCAE grade 0 [3, 5]: 921 | Patients, Neutropaenia, CTCAE grade 1 [3, 5]: 71 | Patients, Neutropaenia, CTCAE grade 2 [3, 5]: 28 | Patients, Neutropaenia, CTCAE grade 3 [3, 5]: 17 | Patients, Thrombocytopaenia, CTCAE grade 0 [3, 5]: 961 | Patients, Thrombocytopaenia, CTCAE grade 1 [3, 5]: 67 | Patients, Thrombocytopaenia, CTCAE grade 2 [3, 5]: 9 | Patients, Thrombocytopaenia, CTCAE grade 3 [3, 5]: 0 | Patients, Thrombocytopaenia, CTCAE grade 4 [3, 5]: 4 | Patients, Vomiting, CTCAE grade 3 [3, 5]: 12 | Patients, Vomiting, CTCAE grade 4 [3, 5]: 3 | Patients, Diarrhoea, CTCAE grade 0 ([3]; human, in vivo, 24 weeks): 370 | Patients, Diarrhoea, CTCAE grade 1 ([3]; human, in vivo, 24 weeks): 388 | Patients, Diarrhoea, CTCAE grade 2 ([3]; human, in vivo, 24 weeks): 175 | Patients, Diarrhoea, CTCAE grade 3 ([3]; human, in vivo, 24 weeks): 99 | Patients, Diarrhoea, CTCAE grade 4 ([3]; human, in vivo, 24 weeks): 10 | Patients, Global adverse event, CTCAE grade 4 ([3]; human, in vivo, 24 weeks): 19 | Patients, Handfoot, CTCAE grade 0 ([3]; human, in vivo, 24 weeks): 176 | Patients, Handfoot, CTCAE grade 1 ([3]; human, in vivo, 24 weeks): 287 | Patients, Handfoot, CTCAE grade 2 ([3]; human, in vivo, 24 weeks): 331 | Patients, Handfoot, CTCAE grade 3 ([3]; human, in vivo, 24 weeks): 246 | Patients, Handfoot, CTCAE grade 4 ([3]; human, in vivo, 24 weeks): 1 | Patients, Mucositis, CTCAE grade 0 ([3]; human, in vivo, 24 weeks): 734 | Patients, Mucositis, CTCAE grade 1 ([3]; human, in vivo, 24 weeks): 248 | Patients, Mucositis, CTCAE grade 2 ([3]; human, in vivo, 24 weeks): 49 | Patients, Mucositis, CTCAE grade 3 ([3]; human, in vivo, 24 weeks): 11 | Patients, Mucositis, CTCAE grade 4 ([3]; human, in vivo, 24 weeks): 0 | Patients, Stomatitis, CTCAE grade 0 ([3]; human, in vivo, 24 weeks): 718 | Patients, Stomatitis, CTCAE grade 1 ([3]; human, in vivo, 24 weeks): 244 | Patients, Stomatitis, CTCAE grade 2 ([3]; human, in vivo, 24 weeks): 67 | Patients, Stomatitis, CTCAE grade 3 ([3]; human, in vivo, 24 weeks): 11 | Patients, Stomatitis, CTCAE grade 4 ([3]; human, in vivo, 24 weeks): 1 | Patients, Vomiting, CTCAE grade 0 ([3]; human, in vivo, 24 weeks): 817 | Patients, Vomiting, CTCAE grade 1 ([3]; human, in vivo, 24 weeks): 134 | Patients, Vomiting, CTCAE grade 2 ([3]; human, in vivo, 24 weeks): 74 | Share of capecitabine patients suffering dose-limiting levels of drug-induced adverse events ([1]; background statement): approximately one third | Mortality from rapid-onset toxicity relative to infusional and bolus 5-FU regimens (0.5% to 2%) ([1]; capecitabine schedules, literature): about half that number
